Data published in ChEMBL document CHEMBL1201862, “PubChem BioAssay data set” (2004).
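Briefly, cells in 96-well plates were exposed to five compound concentrations for 48 h, and endpoints were estimated by linear interpolation. Abbreviation: GI50, concentration required for 50% inhibition of growth.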 Activity calls are given as the source filed them. No stated cut-off is given here; in the data, active = GI50 up to about 1.1 µM and inactive = higher.

Assays:
Assay in all cases: NCI anticancer screen, dose series, 48 h
[1] = system: A549
[2] = system: CAKI-1
[3] = system: COLO 205
[4] = system: IGROV-1
[5] = system: MOLT-4
[6] = system: NCI-H226
[7] = system: OVCAR-3
[8] = system: OVCAR-4
[9] = system: SK-MEL-2
[10] = system: SK-OV-3
[11] = system: SNB-19
[12] = system: UACC-257
[13] = system: UO-31
[14] = system: EKVX
[15] = system: RXF 393
[16] = system: SF-539
[17] = system: SNB-75
[18] = system: UACC-62
[19] = system: A498
[20] = system: SF-268

SMILES	GI50 [1]	GI50 [2]	GI50 [3]	GI50 [4]	GI50 [5]	GI50 [6]	GI50 [7]	GI50 [8]	GI50 [9]	GI50 [10]	GI50 [11]	GI50 [12]	GI50 [13]	GI50 [14]	GI50 [15]	GI50 [16]	GI50 [17]	GI50 [18]	GI50 [19]	GI50 [20]
CN1C[C@H]2[C@@H](C1=O)[C@H](c1ccc([N+](=O)[O-])cc1)ON2C	> 100 µM (inactive)	> 100 µM (inactive)	> 100 µM (inactive)	> 100 µM (inactive)	> 100 µM (inactive)	> 100 µM (inactive)	> 100 µM (inactive)	> 100 µM (inactive)	> 100 µM (inactive)	> 100 µM (inactive)	> 100 µM (inactive)	> 100 µM (inactive)	> 100 µM (inactive)	–	–	–	–	–	–	–
O=C(O)C1=C(CO)Oc2cc3c(cc2C1c1ccc2c(c1)OCO2)OCO3 (centres undefined)	> 100 µM (inactive)	> 100 µM (inactive)	> 100 µM (inactive)	> 100 µM (inactive)	> 100 µM (inactive)	–	> 100 µM (inactive)	> 100 µM (inactive)	> 100 µM (inactive)	> 100 µM (inactive)	> 100 µM (inactive)	> 100 µM (inactive)	> 100 µM (inactive)	> 100 µM (inactive)	> 100 µM (inactive)	> 100 µM (inactive)	> 100 µM (inactive)	> 100 µM (inactive)	–	–
CC(c1ccccc1)/[N+]([O-])=C/c1ccccc1 (centres undefined)	> 100 µM (inactive)	–	> 100 µM (inactive)	> 100 µM (inactive)	> 100 µM (inactive)	–	> 100 µM (inactive)	–	–	> 100 µM (inactive)	> 100 µM (inactive)	> 100 µM (inactive)	> 100 µM (inactive)	> 100 µM (inactive)	> 100 µM (inactive)	> 100 µM (inactive)	> 100 µM (inactive)	–	> 100 µM (inactive)	> 100 µM (inactive)
Cc1cccc(C(O)c2ccccn2)c1O (centres undefined)	> 100 µM (inactive)	> 100 µM (inactive)	> 100 µM (inactive)	> 100 µM (inactive)	> 100 µM (inactive)	> 100 µM (inactive)	> 100 µM (inactive)	–	–	–	> 100 µM (inactive)	> 100 µM (inactive)	> 100 µM (inactive)	> 100 µM (inactive)	> 100 µM (inactive)	> 100 µM (inactive)	> 100 µM (inactive)	74.6 µM (inactive)	–	> 100 µM (inactive)
OC1CCSc2ccccc21 (centres undefined)	> 100 µM (inactive)	> 100 µM (inactive)	> 100 µM (inactive)	> 100 µM (inactive)	> 100 µM (inactive)	> 100 µM (inactive)	> 100 µM (inactive)	> 100 µM (inactive)	> 100 µM (inactive)	> 100 µM (inactive)	> 100 µM (inactive)	–	> 100 µM (inactive)	> 100 µM (inactive)	> 100 µM (inactive)	> 100 µM (inactive)	–	> 100 µM (inactive)	–	> 100 µM (inactive)
NNC(N)Nc1ccccc1 (centres undefined)	> 100 µM (inactive)	> 100 µM (inactive)	> 100 µM (inactive)	> 100 µM (inactive)	> 100 µM (inactive)	> 100 µM (inactive)	> 100 µM (inactive)	> 100 µM (inactive)	> 100 µM (inactive)	> 100 µM (inactive)	> 100 µM (inactive)	> 100 µM (inactive)	> 100 µM (inactive)	> 100 µM (inactive)	> 100 µM (inactive)	> 100 µM (inactive)	–	> 100 µM (inactive)	> 100 µM (inactive)	> 100 µM (inactive)
O=C(NC(Cc1ccc(I)cc1)C(=O)O)c1ccc(Cl)cc1 (centres undefined)	> 100 µM (inactive)	> 100 µM (inactive)	> 100 µM (inactive)	> 100 µM (inactive)	> 74.3 µM (inactive)	> 100 µM (inactive)	> 88.5 µM (inactive)	> 66.8 µM (inactive)	> 100 µM (inactive)	> 100 µM (inactive)	> 100 µM (inactive)	> 100 µM (inactive)	> 100 µM (inactive)	> 67.8 µM (inactive)	–	> 77.1 µM (inactive)	87.3 µM (inactive)	74.8 µM (inactive)	> 100 µM (inactive)	> 100 µM (inactive)
Cc1cc(O)c(C(C)C)cc1SC#N	–	15 µM (inactive)	19.4 µM (inactive)	16.9 µM (inactive)	3.15 µM (inactive)	–	15.5 µM (inactive)	13.5 µM (inactive)	18.2 µM (inactive)	21 µM (inactive)	–	16.6 µM (inactive)	–	–	15.5 µM (inactive)	15.6 µM (inactive)	10.4 µM (inactive)	14.6 µM (inactive)	17.1 µM (inactive)	19.3 µM (inactive)
OC(c1cccnc1Cl)c1nc2ccccc2c2ccnc(Cl)c12 (centres undefined)	7.76 µM (inactive)	6.25 µM (inactive)	3.38 µM (inactive)	5.02 µM (inactive)	3.67 µM (inactive)	–	6.08 µM (inactive)	27.5 µM (inactive)	4.94 µM (inactive)	8.38 µM (inactive)	6.82 µM (inactive)	> 100 µM (inactive)	8.87 µM (inactive)	19.2 µM (inactive)	4.12 µM (inactive)	3.02 µM (inactive)	15 µM (inactive)	2.06 µM (inactive)	3.23 µM (inactive)	6.21 µM (inactive)
CCOC(=O)[C@H]1Nc2ccc(Cl)cc2[C@H]2c3ccccc3O[C@H]21	79.4 µM (inactive)	> 100 µM (inactive)	> 100 µM (inactive)	> 100 µM (inactive)	> 100 µM (inactive)	> 100 µM (inactive)	80.4 µM (inactive)	54.1 µM (inactive)	> 100 µM (inactive)	–	> 100 µM (inactive)	36.1 µM (inactive)	> 100 µM (inactive)	> 100 µM (inactive)	> 100 µM (inactive)	> 100 µM (inactive)	47.4 µM (inactive)	41.8 µM (inactive)	–	> 100 µM (inactive)
CC(=O)OC[C@H]1[C@@H]2C(CC[C@]13CO3)OC(=O)CC(C)[C@]2(C)CCc1ccoc1 (some centres undefined)	> 100 µM (inactive)	> 100 µM (inactive)	> 100 µM (inactive)	> 100 µM (inactive)	> 100 µM (inactive)	> 100 µM (inactive)	> 100 µM (inactive)	> 100 µM (inactive)	–	> 100 µM (inactive)	> 100 µM (inactive)	> 100 µM (inactive)	> 100 µM (inactive)	> 100 µM (inactive)	> 100 µM (inactive)	> 100 µM (inactive)	–	> 100 µM (inactive)	> 100 µM (inactive)	> 100 µM (inactive)
Nc1ccn(C2OC(CO)C(O)C2(F)F)c(=O)n1 (centres undefined)	0.055 µM (active)	0.108 µM (active)	0.82 µM (active)	0.301 µM (active)	0.091 µM (active)	0.706 µM (active)	1.88 µM (inactive)	–	–	0.667 µM (active)	0.129 µM (active)	0.312 µM (active)	0.0658 µM (active)	0.973 µM (active)	0.214 µM (active)	0.109 µM (active)	–	0.127 µM (active)	0.186 µM (active)	0.226 µM (active)
CCOC(=O)c1ccc(Nc2nc3cc(C(F)(F)F)ccc3nc2C(=O)OCC)cc1	39.6 µM (inactive)	23.5 µM (inactive)	46.9 µM (inactive)	> 100 µM (inactive)	> 100 µM (inactive)	–	58.6 µM (inactive)	–	–	44.5 µM (inactive)	22.6 µM (inactive)	> 100 µM (inactive)	> 100 µM (inactive)	> 100 µM (inactive)	> 100 µM (inactive)	50.9 µM (inactive)	40.2 µM (inactive)	66.5 µM (inactive)	36.6 µM (inactive)	97.1 µM (inactive)
CCN1c2ccccc2NC(=S)c2c(-c3ccccc3)n[nH]c21	24.8 µM (inactive)	52.8 µM (inactive)	31.5 µM (inactive)	34.1 µM (inactive)	17 µM (inactive)	–	53.3 µM (inactive)	36.6 µM (inactive)	25.3 µM (inactive)	34 µM (inactive)	–	48.2 µM (inactive)	–	21 µM (inactive)	27.7 µM (inactive)	39.4 µM (inactive)	55.7 µM (inactive)	27.3 µM (inactive)	–	27.4 µM (inactive)
COc1cc(C2S/C(=C/c3ccccc3)C(=O)N2c2cccc(NC(C)=O)c2)cc(OC)c1OC (centres undefined)	39.2 µM (inactive)	25.9 µM (inactive)	27.3 µM (inactive)	–	30.6 µM (inactive)	> 100 µM (inactive)	–	24.4 µM (inactive)	–	56 µM (inactive)	58.7 µM (inactive)	66.2 µM (inactive)	36.6 µM (inactive)	19.3 µM (inactive)	28.8 µM (inactive)	–	4.02 µM (inactive)	29.1 µM (inactive)	32.5 µM (inactive)	24.1 µM (inactive)
Cc1ccc(C2=C(C#N)C(N)OC3=C2COc2ccccc23)cc1 (centres undefined)	31.4 µM (inactive)	–	> 100 µM (inactive)	57.8 µM (inactive)	16.6 µM (inactive)	> 100 µM (inactive)	17 µM (inactive)	13.5 µM (inactive)	26.6 µM (inactive)	25.9 µM (inactive)	19 µM (inactive)	> 100 µM (inactive)	14.3 µM (inactive)	7.19 µM (inactive)	–	39.6 µM (inactive)	–	78 µM (inactive)	24.1 µM (inactive)	27 µM (inactive)
